From patent US20260001910A1, “PEPTIDES AND USES THEREOF” (PreveCeutical Medical Inc., priority 2021, published 2026)

Columns and labels:
[1] = Source text: The MTT (3-[4.5-dimethylthiazol-2-yl]-2,5=diphenyl tetrazolium bromide) assay is based on a process undertaken by living cells, involving the conversion of MTT into formazan crystals. This assay is used routinely to measure the in vitro cytotoxic effects of drugs on cell lines or primary patient cells (Van Meerloo et al., 2011).
The glioblastoma multiforme (GBM) cell lines used were U87 and U251 cells and patient derived cells grown as oncospheres (081024 cells). Human adherent GBM cell lines U87 and U251 were cultured in RPMI medium (Life Technologies Melbourne Australia) supplemented with 5% v/v FBS, 100 U/mL penicillin and 100 μg/mL streptomycin. 081024 cells were cultured in NeuroCult™ NS-A Proliferation medium with 0.2% (v/v) hepain, 20 ng/mL EGF and 10 ng/ml FGF.
8×10^3 U87 and 7×10^3 U251 cells per well were seeded in 96 well plates in 200 μL serum-containing RPMI medium and incubated at 37° C. with 5% CO2 for 24 hours. After one wash with serum-free medium, 100 μL serum-free medium with different concentration of peptide SEQ ID NO:1 was added to each well. After 48 hours incubation, 10 μL of 0.5 mg/mL MTT was added and incubated for 2 hours at 37° C. Formazan crystals were dissolved by 200 μL/well dimethyl sulfoxide (DMSO) and shaking for 15 minutes. The UV absorbance was read with an iMark™ microplate absorbance reader at 595 nm (Bio-Rad Laboratories). Background absorbance was subtracted and results expressed as the % viability of control (untreated cells).

uPA (PLAU) mRNA = experiment: Real time RT-PCR mRNA expression; format: cell-based, human
Source text: (§1) The real-time reverse transcription polymerase chain reaction (RT-PCR) uses fluorescent reporter molecules to monitor the production of amplification products during each cycle of the PCR reaction. This combines the nucleic acid amplification and detection steps into one homogeneous assay and use of appropriate chemistries and data analysis eliminates the need for Southern blotting or DNA sequencing for amplicon identification. Its simplicity, specificity and sensitivity, together with its potential for high throughput and the ongoing introduction of new chemistries, more reliable instrumentation and improved protocols, has made real-time RT-PCR the benchmark technology for the detection and/or comparison of RNA levels.′
(§2) In order to detect and quantify the expression of specific genes at mRNA level, real-time reverse transcriptase polymerase chain reaction (Real time RT-PCR) was performed. Total RNA of samples was isolated and purified using the PureLink® RNA Mini Kit (Life technologies). The concentration of total RNA was detected by NanoDrop 2000 Spectrophotometer (Thermo Scientific). The total RNA (2000 ng) was reverse transcribed using the High-Capacity cDNA Reverse Transcription Kit (Applied Biosystems™).
(§3) The primers of target genes were TaqMan™ Gene Expression Assay for human PLAU (Hs01547054_m1), MMP-2 (Hs01548727_ml), MMP-9 (Hs00957562_m1), Snail-1 (Hs00195591_m1), Snail-2 (Hs00161904_m1), N-cadherin (Hs00983056_m1) and Twist (Hs01675818_s1). Relative quantification was done by reference to 18S ribosomal RNA (18S rRNA) and analysed using the comparative critical threshold (Ct) method
(§4) The mRNA expression of MMPs was measured using qRT-PCR. This was tested three independent times; the results are shown in Tables 8, 9 and 10 for U251, U87 cells and 081024 cells respectively. Results are reported as percent of the control cells (no treatment). SEQ ID NO.

MMP-9 mRNA = experiment: Real time RT-PCR mRNA expression; format: cell-based, human
Source text: as §1, §2, §3, §4

MMP-2 mRNA = experiment: Real time RT-PCR mRNA expression; format: cell-based, human
Source text: as §1, §2, §3, §4

Snail-1 mRNA = experiment: Real time RT-PCR mRNA expression (EMT marker); format: cell-based, human
Source text: as §1, §2, §3, §4
(§5) Epithelial-mesenchymal transition (EMT) is the process by which epithelial cells acquire a migratory (metastatic) phenotype and so EMT is associated with cancer metastasis, cancer cell stemness, chemoresistance and immune resistance. Therefore, the determination of the mRNA expression of EMT markers is a valuable tool to evaluate invasion potential of cancer cells.
(§6) The ‘Snail’ superfamily is involved in cell differentiation and survival, two processes central in cancer research. Snail-1 has a pivotal role in the regulation of epithelial-mesenchymal transition (EMT) and Snail-1 expression is associated with poor prognosis in metastatic cancer, and tumours with elevated Snail-1 expression are harder to treat. The significance of Snail-1 as a prognostic indicator, its involvement in the regulation of EMT and metastasis, and its roles in both drug and immune resistance point out that Snail-1 is an attractive target for tumour growth inhibition and a target for sensitization to cytotoxic drugs (Kaufhold et al., 2014). Twist is transcriptionally active during cell differentiation and lineage determination. During the establishment of cancer metastases by EMT, Twist acts independently of Snail to suppress E-cadherin and to upregulate N-cadherin (CDH-2) and fibronectin. Snail-2 (Slug) is another member of the SNAIL family of transcriptional activators and serves an important role in suppressing the epithelial phenotype in numerous cancer cells (Iwadate, 2016).

Snail-2 mRNA = experiment: Real time RT-PCR mRNA expression (EMT marker); format: cell-based, human
Source text: as §1, §2, §3, §4, §5, §6

CDH-2 (N-cadherin) mRNA = experiment: Real time RT-PCR mRNA expression (EMT marker); format: cell-based, human
Source text: as §1, §2, §3, §4, §5, §6

Twist mRNA = experiment: Real time RT-PCR mRNA expression (EMT marker); format: cell-based, human
Source text: as §1, §2, §3, §4, §5, §6

[2] = 081024 cells, baseline expression level = 1
[3] = U87 cells, baseline expression level = 1
[4] = U251 cells, relative to untreated control, 18S rRNA reference

CC(C)C[C@@H](NC(=O)[C@@H](Cc1ccccc1)NC(=O)CNC(=O)CNC(=O)[C@H](N)Cc1ccc(O)cc1)C(=O)N[C@H](CCCNC(=N)N)C(=O)N[C@H](CCCNC(=N)N)C(N)=O [SEQ ID NO. 1, tyr-Gly-Gly-phe-leu-arg-arg-NH2]
viability at 5 µM [1]: 95.8%
viability at 50 µM [1]: 99.1%
viability at 100 µM [1]: 93.4%
uPA mRNA expression (uPA (PLAU) mRNA; [2]): 0.67
uPA mRNA expression (uPA (PLAU) mRNA; [3]): 1.20
effect on mRNA expression of uPA (in words) (uPA (PLAU) mRNA; U251, U87 and 081024 cells): did not have a statistically significant effect
uPA mRNA expression (uPA (PLAU) mRNA; [4]): 0.82
MMP-9 mRNA expression (MMP-9 mRNA; [2]): 0.54
MMP-9 mRNA expression (MMP-9 mRNA; [3]): 0.71
effect on mRNA expression of MMP-9 (in words) (MMP-9 mRNA; U251, U87 and 081024 cells): did not have a statistically significant effect
MMP-9 mRNA expression (MMP-9 mRNA; [4]): 1.10
MMP-2 mRNA expression (MMP-2 mRNA; [2]): 0.72
MMP-2 mRNA expression (MMP-2 mRNA; [3]): 0.74
effect on mRNA expression of MMP-2 (in words) (MMP-2 mRNA; U251, U87 and 081024 cells): did not have a statistically significant effect
MMP-2 mRNA expression (MMP-2 mRNA; [4]): 0.95
Snail-1 mRNA expression (Snail-1 mRNA; [2]): halved the expression of Snail-1 mRNA with statistical significance
Snail-1 mRNA expression (Snail-1 mRNA; 081024 cells, baseline expression level = 1, listed as SEQ ID NO.1): 0.53
Snail-1 mRNA expression (Snail-1 mRNA; [3]): 0.65
Snail-1 mRNA expression (Snail-1 mRNA; [4]): 1.11
Snail-2 mRNA expression (Snail-2 mRNA; [2]): 0.78
Snail-2 mRNA expression (Snail-2 mRNA; [3]): 1.05
Snail-2 mRNA expression (Snail-2 mRNA; [4]): 1.06
CDH-2 mRNA expression (CDH-2 (N-cadherin) mRNA; [2]): 0.72
CDH-2 mRNA expression (CDH-2 (N-cadherin) mRNA; [3]): 0.83
CDH-2 mRNA expression (CDH-2 (N-cadherin) mRNA; [4]): 0.88
Twist mRNA expression (Twist mRNA; [2]): 0.73
Twist mRNA expression (Twist mRNA; [3]): 0.70
Twist mRNA expression (Twist mRNA; [4]): 0.87
